Marks after values point to notes of the source that are not given here.
Assays:
isolated rat heart = experiment: Isolated rat heart infarction study after oral treatment (cardioprotective activity); format: in vivo, Wistar rats; conditions: for Infarct size, % of control: 20 mg/kg p.o. daily, after 2 weeks of treatment (method: 8 weeks), hearts excised 24 h after last dose, 60 min occlusion, 150 min reperfusion, mean ± s.e.m. of 9-10 animals; for Therapeutical (cardioprotective) effect, in words / Decrease of infarct size: 20 mg/kg p.o., isolated rat heart infarction model; for Decrease of infarct size: versus control
Experimental: Fifty male, 10 weeks old Wistar rats weighing 200-250 g were housed under standard conditions (21-23° C., 12 h light-dark cycle) with unlimited access to food (R3 diet, Lactamin AB, Sweden) and water.
Rats were adapted to local conditions for two weeks before the start of treatment. Meldonium dihydrate at a dose of 20 mg/kg, gamma-butyrobetaine at a dose of 20 mg/kg and 4-[(chloromethyl)(dimethyl) ammonio]butanoate at dose of 20 mg/kg were administered p.o. daily for 8 weeks. Control rats received water.
The isolated rat heart experiment was performed essentially as described earlier (Liepinsh et al., J. Cardiovasc. Pharmacol. 2006; 48(6):314-9). Twenty-four hours after the last drug administration hearts were excised and retrogradely perfused via the aorta at a constant pressure with oxygenated Krebs-Henseleit buffer at 37° C. The heart rate, left ventricle end-diastolic pressure and left ventricle developed pressure were continuously recorded. Coronary flow was measured using an ultrasound flow detector (HSE) and the PowerLab 8/30 system from ADInstruments. The hearts were perfused for 20 min to stabilize the hemodynamic functions and then occlusion was performed for 60 min by constricting threads through a plastic tube. Successful occlusion was confirmed by a coronary flow decrease of about 40 percent. Reperfusion was achieved by releasing the threads. At the end of the 150-min reperfusion period, the risk zone was delineated with 0.1% methylene blue. The hearts were then sectioned transversely from the apex to the base in five slices 2 mm in thickness and incubated in 1% triphenyltetrazolium chloride in phosphate buffer (pH 7.4, 37° C.) for 10 min to stain viable tissue red and necrotic tissue white. Computerized planemetric analysis of Sony A900 photographs was performed using Image-Pro Plus 6.3 software to determine the area at risk and area of necrosis expressed as a % of the left ventricle. The obtained values were then used to calculate the infarct size (IS) as a % of risk area according to the formula: Infarct Size=Area of Necrosis/Area at Risk×100%. Effects in Isolated Rat Heart Infarction Model
The anti-infarction effect of examined substances was investigated in an isolated rat heart infarction model. During occlusion of left coronary artery, the coronary flow in all experimental groups was decreased for 40% (from 11 ml/min to 7 ml/min). Moreover, the drop of developed left ventricular pressure for 50% was observed. […] In reperfusion stage, coronary flow, developed left ventricular pressure, ±dp/dt values were recovered till about 80% of control level. There were no significant differences between control and treatment groups.
Effects of Meldonium dihydrate (20 mg/kg), gamma-butyrobetaine (20 mg/kg) and 4-[(chloromethyl)(dimethyl) ammonio]butanoate (20 mg/kg) after 2 weeks of treatment on infarct size in the isolated rat heart infarction experiment are presented in Table 1.
Rats were adapted to local conditions for two weeks before the start of treatment. Meldonium dihydrate at a dose of 20 mg/kg, gamma-butyrobetaine at a dose of 20 mg/kg and 3-carboxy-N-(2-chloroethyl)-N,N-dimethylpropan-1-aminium chloride at dose of 20 mg/kg were administered p.o. daily for 8 weeks. Control rats received water.
Effects of Meldonium dihydrate (20 mg/kg), gamma-butyrobetaine (20 mg/kg) and 3-carboxy-N-(2-chloroethyl)-N,N-dimethylpropan-1-aminium chloride (20 mg/kg) after 2 weeks of treatment on infarct size in the isolated rat heart infarction experiment are presented in Table 2.
The same experimental conditions as above were used for testing 3-carboxy-N-(2-fluoroethyl)-N,N-dimethylpropan-1-aminium chloride.
Effects of Meldonium dihydrate (20 mg/kg), gamma-butyrobetaine (20 mg/kg) and 3-carboxy-N-(2-fluoroethyl)-N,N-dimethylpropan-1-aminium chloride (20 mg/kg) after 2 weeks of treatment on infarct size in the isolated rat heart infarction experiment are presented in Table 3.

[1] = s.c.; cited from earlier work

Row | Compound | melting point [°C] | Infarct size, % of control (isolated rat heart) | Therapeutical (cardioprotective) effect, in words (isolated rat heart) | Decrease of infarct size (isolated rat heart) [%] | LD50 [1] [mg/kg]
1 | C[N+](C)(CCCl)CCCC(=O)O.[Cl-] [3-carboxy-N-(2-chloroethyl)-N,N-dimethylpropan-1-aminium chloride] | 130 | 59.9 ± 7.6*^,#,$ % of control | best therapeutical effect | 41.1 | –
2 | C[N+](C)(CCF)CCCC(=O)O.[Cl-] [3-carboxy-N-(2-fluoroethyl)-N,N-dimethylpropan-1-aminium chloride] | – | 65.5 ± 9.1*^,#,$ % of control | best therapeutical effect | 34.5 | –
3 | C[N+](C)(CCl)CCCC(=O)[O-] [4-[(chloromethyl)(dimethyl)ammonio]butanoate] | 100.5 to 101 | 65.2 ± 6.8*^,#,$ % of control | best therapeutical effect | 34.8 | –
4 | C[N+](C)(C)CCCC(=O)[O-] [Gamma-butyrobetaine, γ-Butyrobetaine, reference compound] | – | 87.6 ± 11.4 % of control | – | ~12.4 | > 7000
5 | C[N+](C)(C)NCCC(=O)[O-] [Meldonium dihydrate, 3-(2,2,2-Trimethylhydrazinium) propionate dihydrate, reference compound] | – | 117.9 ± 7.9 % of control | – | – | –
